Series [1] deals with IFN-γ production of spleen cells. In words: IFN-γ production of spleen cells stimulated with anti-CD3 antibody, from gel-treated mice (Experiment 16). Format: in vivo, NC/Nga mice. As to conditions: for production level of IFN-γ of spleen cells stimulated with the anti-CD3 antibody: compared to mice applied with gel prepared by adding refined water (Experiment group 1); for Content of IFN-γ: supernatant of spleen cells stimulated with anti-CD3 antibody, picryl chloride-sensitized mice applied with gel. How it is done: On Friday of the 6th week of the induction (46th day after initiating the application), all the mice were sacrificed, followed by isolating their spleens and collecting spleen cells in usual manner. […] To each well 2 μg/mL of “Purified Mouse CD3ε Monoclonal Antibody”, a product name of an anti-CD3 antibody, commercialized by Cosmo Bio Co., Ltd., Tokyo, Japan, was added, and the cells were incubated at 37° C. for three days in a 5% v/v CO2 incubator, followed by assaying the levels of cytokines in each supernatant thereof.
The results are in Table 19 in parallel.

In series [2] the test system is TNF-α production from NHEK cells. Kind of series: TNF-α production from NHEK cells irradiated with ultraviolet B (Experiment 17). In kind it is cell-based, human. As to conditions: for TNF-α: NHEK cells, stimulation by ultraviolet rays; for production of TNF-α from NHEK cells induced by ultraviolet rays: UVB 40 mJ/cm^2, supernatant at six hours. How it is done: “CELLMATRIX TYPE IV”, a product name of collagen for tissue culture commercialized by Nitta Gelatin Inc., Osaka, Japan, which had been diluted with PBS(K-) by 10 times, was previously placed in “FALCON 35-3001”, a product name of 35 mm petri dish commercialized by Becton Dickinson and Company, NJ, USA, in an amount of 1 mL/plate, and then allowed to stand at ambient temperature for 10 min, followed by removing an excessive amount of CELLMATRIX, drying the petri dish in air, and washing it thrice with PBS(K-). […] The cells were cultured at 37° C. in a 5% v/v CO2 incubator. On the 2nd and 4th days after the cell inoculation, the medium was replaced with EpiLife medium free of EDGS (1 mL/plate). On the 5th day after the cell inoculation, the supernatant was removed, and the petri dish was washed twice by adding 1 mL/petri dish of Hanks' balanced salt solution (called “HBSS (−) buffer”, hereinafter). Further, 2 mL/petri dish of HBSS (−) buffer was added to the petri dish which was then placed in the position 15 cm apart from an ultraviolet ray light source and irradiated with 40 mJ/cm^2 of ultraviolet B radiation. […] As an ultraviolet ray light source, “NS-8F”, a light source for actual use commercialized by Sanwa Medical Co., Ltd., Okayama, Japan, equipped with an ultraviolet B radiation lamp was used, and the radiation dose was measured on “UVR-305/365D (II)”, an ultraviolet ray meter commercialized by Topcon Corporation, Tokyo, Japan. TNF-α was assayed by the same method as in Experiment 2. The remaining other cytokines were assayed with an IL-1α assay kit, commercialized by R & D Systems Inc., MN, USA, and an IL-8 assay kit commercialized by BioLegend, CA, USA.

Series [3] deals with TNF-α production of HUVEC cells. Kind of series: TNF-α production of HUVEC cells, LPS/IL-1β/IFN-γ (Experiment 6-1). Format: cell-based, human. As to conditions: for TNF-α Concentration: HUVEC, LPS 10 μg/mL, IL-1β, IFN-γ; for IC50: Homo sapiens, LPS in the coexistence of IL-1β and IFN-γ, read-out: IC50 against production inhibition of TNF-α. The text has this:
The results are in Table 6 in parallel.

Series [4] deals with tissue factor expression in HUVEC cells. Kind of series: Expression of tissue factor in HUVEC cells, ELISA of cell lysate (Experiment 6-2). Format: cell-based, human. As to conditions: for concentration which significantly inhibited the expression of tissue factor: LPS; for concentration which significantly inhibited the expression of tissue factor / Amount of expressed tissue factor: IL-1β, IFN-γ; for Amount of expressed tissue factor: HUVEC, LPS 10 μg/mL. How it is done: Thereafter, a solution of LPS, IL-1β, and IFN-γ were respectively prepared to give respective concentrations of 10 μg/mL, 2 ng/mL, and 500 IU/mL, added to the cells in an amount of 50 μL/well, and incubated at 37° C. for 5.5 hours in a 5% v/v CO2 incubator. After the culture, the cells were washed twice with PBS, followed by adding PBS to the resulting cells in a volume of 50 μL/well. The multi-plates were subjected to a freezing at −80° C. and thawing process thrice, followed by adding 50 mM Tris buffer (pH 7.4) containing 100 mM NaCl and 0.2% Triton X-100 to the microplates in an amount of 50 μL/well, culturing the cells at 4° C. overnight to prepare a cell lysate. The content of tissue factor in the cell lysate was determined by “AssayMax Human Tissue Factor ELISA Kit”, a product name of ELISA commercialized by Assay Pro, USA.

Series [5] deals with mouse intraperitoneal macrophages. In words: Cell viability of mouse intraperitoneal macrophages, AlamarBlue (Experiment 2). As to conditions: LPS 2 μg/mL, IFN-γ 10 IU/mL, control = 100%. In kind it is cell-based. Background: Alamar Blue is a resazurin reagent that responds to reducing activity.
For series [6] the following is noted: D-MEM medium, absence of human serum, 100 μM, 37° C., 24 hours.
Series [7] has as its system VCAM-1 expression in HUVEC cells. Kind of series: Expression of cell-adhesion factor VCAM-1 on HUVEC cells, fluorescent intensity (Experiment 6-3). In kind it is cell-based, human. As to conditions: LPS 10 μg/mL, IL-1β, IFN-γ. How it is done:
Thereafter, the supernatant in each well was removed by suction, and the cells were washed twice with PBS, followed by adding 4% paraformaldehyde to the cells and allowing them to stand at ambient temperature for one hour to fix them. After the fixation, the cells were washed thrice with PBS, followed by adding PBS containing 1% BSA and 0.05% NaN3 in an amount of 150 μL/well, and subjecting the cells to blocking at 4° C. overnight. […] Thereafter, the cells were washed four times with PBS, adding an HRPO-labeled streptavidin (“Streptavidin HRP Conjugate”, a product name of Invitrogen Corporation, CA, USA), which had been diluted with PBS containing 3% BSA by 1,000 times, in an amount of 100 μL/well and allowing the cells to stand at ambient temperature for one hour. Finally, the cells were washed four times with PBS, allowed to develop color for 10 min with “QuantaBlue™ Fluorogenic Peroxidase Substrate”, commercialized by Pierce Biotechnology, IL, USA, and determined the cells' fluorescent intensity at a wavelength of 325 to 420 nm. […] The results are in Table 6 in parallel.

Series [8] is described as follows: Body weight of picryl chloride-sensitized mice applied with gels (Experiment 16). As to conditions: picryl chloride-sensitized NC/Nga mice, throughout the test period.
Method: The eight mice in each five groups were sensitized (may be simply called “sensitization”, hereinafter) with picryl chloride (Tokyo Chemical Industry Co., Ltd., Tokyo, Japan) in such a manner of dropping a solution, which had been dissolved in a mixture solution of ethanol and acetone in a volume ratio of 4:1 at a concentration of 5%, on the shaved abdominal skin of the mice and on four footpads in a total volume of 150 μL/mouse, and spreading the solution over the abdominal skin and the foot pads by using a micropipette similarly as above.
Throughout the test period, the mice were weighed once a week. The judgement of the conditions of skin inflammation was conducted twice a week every Tuesday and Friday from the 3rd induction for the degrees of four items of red flare/bleeding, edema (swelling of earflap), chafing/loss of tissue, and the formation of scar tissue/drying, and scored based on the criterion of four grades shown in Table 17; “0” (symptomless), “1” (mild), “2” (moderate), and “3” (severe). The total scores of each evaluation items for each group were averaged for use as a skin score.

Marks after values point to notes of the source that are not given here.

What is called IC50 is the concentration that inhibits the measured activity by half. `Nc1c2ncn([C@@H]3O[C@H](CO)[C@@H](O)[C@H]3O)c2nc[n+]1[O-]` [ANO, adenosine N1-oxide]: in series [1], the “production level of IFN-γ of spleen cells stimulated with the anti-CD3 antibody” value (“production level” for short) is “significantly lower”. Further, in series [1], the “Content of IFN-γ” value was 8.75* pg/mL. The figures for the TNF-α in series [2] (1 μM), in series [2] (5 μM) and in series [2] (10 μM) were 119 pg/mL, 76 pg/mL and 76 pg/mL, respectively. Further, in series [2], the “production of TNF-α from NHEK cells induced by ultraviolet rays” value (shortened to “production of TNF-α”) was “inhibited”. Also, the “TNF-α production inhibitory action stronger than that of adenosine” value in series [3] (HUVEC cells, comparison of IC50) is “about 16 times”. Further, the “TNF-α Concentration” value in series [3] (test substance 0.2 μM) was 51 pg/mL; in series [3] (test substance 0.5 μM) it was 41.1 pg/mL; in series [3] (test substance 1 μM) it was 25.1** pg/mL; in series [3] (test substance 2 μM) it was 12.3** pg/mL; in series [3] (test substance 5 μM), 1.8** pg/mL. Moreover, the IC50 in series [3] (HUVEC cells) was 0.97 µM. For the same compound, the “inhibitory strength on tissue factor expression, stronger than adenosine” value in series [4] (HUVEC cells) is given as “at least 10 times”. Further, in series [4] (HUVEC cells), the “concentration which significantly inhibited the expression of tissue factor” value was “at least 0.5 μM”. The “Amount of expressed tissue factor” value in series [4] (test substance 0.2 μM) is listed as 27.6; in series [4] (test substance 0.5 μM), 13.5**; in series [4] (test substance 1 μM), 12.9**; in series [4] (test substance 2 μM), 9.4**; in series [4] (test substance 5 μM), 0**; in series [4] (test substance 10 μM), 0**. The Cell viability in series [5] (ANO 0.006 μM), in series [5] (ANO 0.031 μM), in series [5] (ANO 0.063 μM) and in series [5] (ANO 0.313 μM) was 100% each time. The compound also registered a residual percentage in series [6] of 100%. Moreover, the “Amount of expressed VCAM-1” value in series [7] (test substance 0.2 μM) is recorded as 4,123; in series [7] (test substance 0.5 μM) it was 4,052; in series [7] (test substance 1 μM), 3,920; in series [7] (test substance 2 μM) it was 3,967; in series [7] (test substance 5 μM), 3,603*; in series [7] (test substance 10 μM), 2,823**.
On to `OC[C@H]1O[C@@H](n2cnc3c(O)ncnc32)[C@H](O)[C@@H]1O` [IN, inosine], for which the “production level” value in series [1] is “showed no difference”. Further, the “Content of IFN-γ” value in series [1] turned out to be 13.2 pg/mL. The TNF-α amounted to 141 pg/mL in series [2] (1 μM), 142 pg/mL in series [2] (5 μM) and 128 pg/mL in series [2] (10 μM). Further, the “production of TNF-α” value in series [2] is “did not influence”. Further, the “body weight of mice applied with the gel” value in series [8] was “reduction of increasing rate of their body weights”.
Consider `Nc1ncnc2c1ncn2[C@@H]1O[C@H](CO)[C@@H](O)[C@H]1O` [AN, adenosine], for which, in series [1], the “production level” value is reported as “showed no difference”. Further, in series [1], the “Content of IFN-γ” value worked out at 12.1 pg/mL. Also, the TNF-α in series [2] (1 μM) came to 144 pg/mL; in series [2] (5 μM), 138 pg/mL; in series [2] (10 μM) it was 138 pg/mL. Besides, the “production of TNF-α” value in series [2] is “did not influence”. In addition, the “TNF-α Concentration” value was 53 pg/mL in series [3] (test substance 1 μM), 49.2 pg/mL in series [3] (test substance 2 μM), 40.3 pg/mL in series [3] (test substance 5 μM) and 31.1** pg/mL in series [3] (test substance 10 μM). Besides, the concentration for half-maximal inhibition (IC50) in series [3] (HUVEC cells) amounted to 15.2 µM. In series [4] (HUVEC cells), the “concentration which significantly inhibited the expression of tissue factor” value is reported as “at least 5 μM”. Besides, the “Amount of expressed tissue factor” value in series [4] (test substance 1 μM) is given as 27.1; in series [4] (test substance 2 μM), 26.6; in series [4] (test substance 5 μM), 13.9**; in series [4] (test substance 10 μM), 4.5**. Also, the “Amount of expressed VCAM-1” value is 3,824 in series [7] (test substance 1 μM), 3,957 in series [7] (test substance 2 μM), 3,609** in series [7] (test substance 5 μM) and 2,823** in series [7] (test substance 10 μM).

Values taken from patent US9757408B2 (Hayashibara Co., Ltd., priority 2010, dated 2017).
